Values quoted from earlier work in patent publication US12377214B2 (priority 2016, dated 2025).

Test system: BIS index
Conditions: in vivo

CC(C)c1cccc(C(C)C)c1O [propofol]
Cp50 (interaction model parameter, effect site concentration of propofol): 4.47
